According to patent US8273771B2, “Ischemic disorder or disease inhibitors” (Pronas Pharma AB, priority 2007, dated 2012):

System: MCA and BA from rats with induced SAH
Assay: Myograph contractile response to 5-CT in cerebral arteries of treated SAH rats
Parameters: species or system rat
Settings: treatment in vivo, compared to SAH rats; for 5-CT contraction, first 5-HT1B and second 5-HT2A phases: BA; for 5-CT contraction Emax(1) / 5-CT contraction Emax(2), pEC50(1) and pEC50(2): MCA
Protocol: After 48 hours of observation sham, SAH treated with SB386023-b or treated with the PKC inhibitor RO-31-7549 or U0126 or SAH+vehicle operated rats (see above SAH model) were anaesthetized with CO2 and decapitated. The brains were quickly removed and chilled in ice-cold bicarbonate buffer solution (see composition below). Under a dissection microscope, the middle cerebral artery (MCA), the basilar artery (BA) and circle of Willis were carefully dissected free from the brain and cleared of connective tissue. The MCA and BA were immediately mounted in myographs for in vitro pharmacology or snap frozen at −80° C. and examined by real-time PCR.
In vitro Pharmacology Myograph Experiments For contractile experiments a sensitive myograph was used for recording the isometric tension in isolated cerebral arteries (Hogestatt et al., (1983, Mulvany and Helpern, 1977). The vessels were cut into 1 mm long cylindrical segments and mounted on two 40 μm in diameter stainless steel wires in a Myograph (Danish Myo Technology A/S, Denmark). One wire was connected to a force displacement transducer attached to an analog-digital converter unit (ADInstruments, Oxford, UK). The other wire was connected to a micrometer screw, allowing fine adjustments of vascular tone by varying the distance between the wires. Measurements were recorded on a computer by use of a PowerLab unit (ADInstruments). The segments were immersed in a temperature controlled buffer solution (37° C.) of the following composition (mM) NaCl 119, NaHCO3 15, KCl 4.6, MgCl2 1.2, NaH2PO4 1.2, CaCl2 1.5 and glucose 5.5. The buffer was continuously aerated with oxygen enriched with 5% CO2 resulting in a pH of 7.4. The vessels were stretched to an initial resting tone of 2 mN and then allowed to stabilize at this tone for 1 hour. The contractile capacity was determined by exposing the vessels to an isotonic solution containing 63.5 mM of K+, obtained by partial change of NaCl for KCl in the above buffer. The contraction induced by K+ was used as reference for the contractile capacity. Only vessels responding by contraction of at least 2.0 mN to potassium for BA and 0.8 mN to potassium for MCA were included in the study. The presence of the endothelium was checked by precontracting the vessel using 5-HT (10^−6.5M) (Sigma, St Louis, USA) and subsequently exposing the segments to carbachol (10^−5 M) (Sigma, St Louis, USA). A relaxant response of the precontracted tension was considered indicative of a functional endothelium (Hansen-Schwartz et al., 2003a).
Concentration-response curves were obtained by cumulative application of 5-CT (Sigma, St. Louis, USA) in the concentration range 10^−12 to 10^−5 M, ET-1 (AnaSpec, San Jose, USA) in the concentration range 10^−14 to 10^−7 M and Ang II (Sigma, St. Louis, USA) in the concentration range 10^−12 to 10^−6 M. Before application of Ang II the arteries were pretreated with the AT2 receptor antagonist PD123319 (10^−5.5 M) for 30 minutes (a kind gift from Dr P. Morsing, Astra-Zeneca, Molndal, Sweden).
Data are expressed as mean±standard error of the mean (s.e.m.), and n refers to the number of rats. Statistical analyses were performed with Kruskal-Wallis non-parametric test with Dunn's post-hoc test, where P<0.05 was considered significant. In vitro Pharmacology Contractile responses in each segment are expressed as percentage of the 63.5 mM K+ induced contraction. Emax value represents the maximum contractile response elicited by an agonist and the pEC50 the negative logarithm of the drug concentration that elicited half the maximum response. For biphasic responses, Emax(1) and pEC50(1) describes the high affinity phase and Emax(2) and pEC50(2) describes the low affinity phase.

| Compound | 5-CT contraction, first 5-HT1B and second 5-HT2A phases | 5-CT contraction Emax(1) | 5-CT contraction Emax(2), pEC50(1) and pEC50(2) |
| --- | --- | --- | --- |
| Cn1cc(C2=C(c3cn(CCCN)c4ccccc34)C(=O)NC2=O)c2ccccc21 [RO-31-7549] | downregulated | significantly reduced | tendency to decrease |
| Oc1cc(-c2nc(-c3ccccc3)[nH]c2-c2ccncc2)ccc1Cl [SB386023-b] | downregulated | significantly reduced | tended to decrease |
| N#CC(=C(/N)Sc1ccccc1N)/C(C#N)=C(\N)Sc1ccccc1N [U0126] |  | significantly reduced | tended to decrease |
